Results from US11014911B2, “CDK2 inhibitors” (Pfizer Inc., priority 2019, dated 2021).

Legend:
[1] = molecular target: CDK2/Cyclin E1 full length (Homo sapiens (Human), UniProt P24941); test: CDK2/Cyclin E1 full length mobility shift assay; assay type: biochemical
GSK3β (H350L) = GSK3β (H350L) (Homo sapiens (Human), UniProt P49841); settings: read-out: GSK3β Ki
Sequence of GSK3β (H350L) (P49841 whole entry, stated change not applied): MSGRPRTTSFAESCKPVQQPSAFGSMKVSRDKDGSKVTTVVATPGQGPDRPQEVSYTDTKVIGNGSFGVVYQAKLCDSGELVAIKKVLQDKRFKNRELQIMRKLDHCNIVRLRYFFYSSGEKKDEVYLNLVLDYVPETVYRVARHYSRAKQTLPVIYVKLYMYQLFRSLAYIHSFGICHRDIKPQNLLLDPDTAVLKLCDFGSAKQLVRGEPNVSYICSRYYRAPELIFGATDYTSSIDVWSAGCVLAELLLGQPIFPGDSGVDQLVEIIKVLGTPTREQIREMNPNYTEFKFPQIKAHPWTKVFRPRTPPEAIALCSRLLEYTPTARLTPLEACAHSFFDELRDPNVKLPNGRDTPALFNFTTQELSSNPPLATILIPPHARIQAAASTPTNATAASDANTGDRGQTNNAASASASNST
Description: The assay was initiated with the addition of ATP, following 15 minutes pre-incubation of enzyme and inhibitor at room temperature in the reaction mixture. The reaction was stopped after 30 minutes at room temperature by the addition of 50 μL of 80 mM EDTA.

| SMILES | Ki [1] [nM] | Ki (GSK3β (H350L)) [nM] |
| --- | --- | --- |
| CCC(C)(C)NC(=O)O[C@@H]1CC[C@H](c2cc(NC(=O)Cc3ncc(C)o3)n[nH]2)C1 [Example 62] | 0.21 | 24 |
| CC[C@H](C)NC(=O)O[C@@H]1CC[C@H](c2cc(NC(=O)Cc3cccc4c3CN(C)C4=O)n[nH]2)C1 [Example 361, (1R,3S)-3-(3-{[(2-methyl-1-oxo-2,3-dihydro-1H-isoindol-4-yl)acetyl]amino}-1H-pyrazol-5-yl)cyclopentyl (2S)-butan-2-ylcarbamate] | 0.94 | 25.6 |
| CC[C@H](C)NC(=O)O[C@@H]1CC[C@H](c2cc(NC(=O)Cc3cnc4ncnn4c3)n[nH]2)C1 [Example 39] | 0.14 | 23.9 |
| CC[C@H](C)NC(=O)O[C@@H]1CC[C@H](c2cc(NC(=O)Cc3cnn(C)c3C)n[nH]2)C1 [Example 337, (1R,3S)-3-(3-{[(1,5-dimethyl-1H-pyrazol-4-yl)acetyl]amino}-1H-pyrazol-5-yl)cyclopentyl (2S)-butan-2-ylcarbamate] | 0.58 | 94.9 |
| Cc1ncc(CC(=O)Nc2cc([C@H]3CC[C@@H](OC(=O)NC(C)(C)C)C3)[nH]n2)s1 [Example 113] | 0.16 | 11.1 |
| C[C@]1(O)CC[C@@H](NC(=O)O[C@@H]2CC[C@H](c3cc(NC(=O)Cc4cc(F)cc(F)c4)n[nH]3)C2)CC1 [Example 572, (1R,3S)-3-(3-{[(3,5-difluorophenyl)acetyl]amino}-1H-pyrazol-5-yl)cyclopentyl (cis-4-hydroxy-4-methylcyclohexyl)carbamate] | 0.37 | 24.2 |
| CC1(NC(=O)O[C@@H]2CC[C@H](c3cc(NC(=O)Cc4ccc(Cl)cn4)n[nH]3)C2)CC1 [Example 437, (1R,3S)-3-(3-{[(5-chloropyridin-2-yl)acetyl]amino}-1H-pyrazol-5-yl)cyclopentyl (1-methylcyclopropyl)carbamate] | 0.51 | 15.9 |
| COc1ncc(CC(=O)Nc2cc([C@H]3CC[C@@H](OC(=O)N4CCOC[C@@H]4C)C3)[nH]n2)s1 [Example 646, (1R,3S)-3-(3-{[(2-methoxy-1,3-thiazol-5-yl)acetyl]amino}-1H-pyrazol-5-yl)cyclopentyl (3S)-3-methylmorpholine-4-carboxylate] | 1.03 | 5.18 |
| Cc1cnc(CC(=O)Nc2cc([C@H]3CC[C@@H](OC(=O)N[C@@H](C)[C@@H](C)F)C3)[nH]n2)o1 [Example 383, (1R,3S)-3-(3-{[(5-methyl-1,3-oxazol-2-yl)acetyl]amino}-1H-pyrazol-5-yl)cyclopentyl [(2S,3R)-3-fluorobutan-2-yl]carbamate] | 1.34 | 43.2 |
| CC[C@H](C)NC(=O)O[C@@H]1CC[C@H](c2cc(NC(=O)Cc3scnc3C)n[nH]2)C1 [Example 342, (1R,3S)-3-(3-{[(4-methyl-1,3-thiazol-5-yl)acetyl]amino}-1H-pyrazol-5-yl)cyclopentyl (2S)-butan-2-ylcarbamate] | 0.74 | 40 |
| CC[C@H](C)NC(=O)O[C@@H]1CC[C@H](c2cc(NC(=O)Cc3ccc4nc(C)cn4n3)n[nH]2)C1 [Example 47] | 0.11 | 10.2 |
| Cc1cc(CC(=O)Nc2cc([C@H]3CC[C@@H](OC(=O)N4CCCCC4(C)C)C3)[nH]n2)on1 [Example 133] | 0.11 | 7 |
| Cc1cc(CC(=O)Nc2cc([C@H]3CC[C@@H](OC(=O)N4CCCC4(C)C)C3)[nH]n2)on1 [Example 134] | 0.12 | 7.12 |
| CC1(C)CCCN1C(=O)O[C@@H]1CC[C@H](c2cc(NC(=O)Cc3ccon3)n[nH]2)C1 [Example 135] | 0.19 | 11.7 |
| CC(C)NC(=O)O[C@H]1CC[C@@H](c2cc(NC(=O)Cc3ccno3)n[nH]2)C1 [Example 263, (1S,3R)-3-{3-[(1,2-oxazol-5-ylacetyl)amino]-1H-pyrazol-5-yl}cyclopentyl propan-2-ylcarbamate] | 0.52 | 31.9 |
| O=C(Cc1cc(F)cc(F)c1)Nc1cc([C@@H]2CC[C@H](OC(=O)N[C@H]3CC[C@@H](O)CC3)C2)[nH]n1 [Example 27] | 0.24 | 3.57 |
| CCCNC(=O)O[C@@H]1CC[C@H](c2cc(NC(=O)Cc3ccc(OC)nc3)n[nH]2)C1 [Example 188, (1R,3S)-3-(3-{[(6-methoxypyridin-3-yl)acetyl]amino}-1H-pyrazol-5-yl)cyclopentyl propylcarbamate] | 0.44 | 9.32 |
| C[C@]1(O)CC[C@H](NC(=O)O[C@H]2CC[C@@H](c3cc(NC(=O)Cc4ccccc4)n[nH]3)C2)CC1 [Example 559, (1S,3R)-3-{3-[(phenylacetyl)amino]-1H-pyrazol-5-yl}cyclopentyl (trans-4-hydroxy-4-methylcyclohexyl)carbamate] | 1.44 | 8.58 |
| CC[C@H](C)NC(=O)O[C@@H]1CC[C@H](c2cc(NC(=O)Cc3cc(C)ccc3S(C)(=O)=O)n[nH]2)C1 [Example 371, (1R,3S)-3-[3-({[5-methyl-2-(methylsulfonyl)phenyl]acetyl}amino)-1H-pyrazol-5-yl]cyclopentyl (2S)-butan-2-ylcarbamate] | 0.32 | 161 |

| SMILES | Ki [1] [nM] | Ki (GSK3β (H350L)) [nM] |
| --- | --- | --- |
| COc1cc(CC(=O)Nc2cc([C@H]3CC[C@@H](OC(=O)N[C@@H](C)CF)C3)[nH]n2)ccn1 [Example 100] | 0.43 | 41.7 |
| COc1ncc(CC(=O)Nc2cc([C@H]3CC[C@@H](OC(=O)NC(C)C)C3)[nH]n2)s1 [Example 281, (1R,3S)-3-(3-{[(2-methoxy-1,3-thiazol-5-yl)acetyl]amino}-1H-pyrazol-5-yl)cyclopentyl propan-2-ylcarbamate] | 0.33 | 24.4 |
| CCCNC(=O)O[C@H]1CC[C@@H](c2cc(NC(=O)c3cn(C)nc3C)n[nH]2)C1 [Example 174, (1S,3R)-3-(3-{[(1,3-dimethyl-1H-pyrazol-4-yl)carbonyl]amino}-1H-pyrazol-5-yl)cyclopentyl propylcarbamate] | 3 | > 95.3 |
| Cc1cnc(CC(=O)Nc2cc([C@H]3CC[C@@H](OC(=O)N4[C@@H](C)C[C@@H]4C)C3)[nH]n2)o1 [Example 606, (1R,3S)-3-(3-{[(5-methyl-1,3-oxazol-2-yl)acetyl]amino}-1H-pyrazol-5-yl)cyclopentyl (2S,4S)-2,4-dimethylazetidine-1-carboxylate] | 0.63 | 11.5 |
| COCc1cc(C(=O)Nc2cc([C@H]3CC[C@@H](OC(=O)N[C@@H](C)C4CC4)C3)[nH]n2)n(C)n1 [Example 104] | 0.17 | > 47.6 |
| CC(C)(C)NC(=O)O[C@@H]1CC[C@H](c2cc(NC(=O)Cc3ccno3)n[nH]2)C1 [Example 108] | 0.15 | 38.8 |
| Cc1ccc(CC(=O)Nc2cc([C@@H]3CC[C@H](OC(=O)N[C@H]4CC[C@@H](O)CC4)C3)[nH]n2)nc1 [Example 546, (1S,3R)-3-(3-{[(5-methylpyridin-2-yl)acetyl]amino}-1H-pyrazol-5-yl)cyclopentyl (cis-4-hydroxycyclohexyl)carbamate] | 1.85 | 3.51 |
| CCCNC(=O)O[C@@H]1CC[C@H](c2cc(NC(=O)Cc3ccc4c(cnn4C)c3)n[nH]2)C1 [Example 54] | 0.24 | 9.25 |
| Cc1nnc(CC(=O)Nc2cc([C@H]3CC[C@@H](OC(=O)NC(C)(C)C)C3)[nH]n2)o1 [Example 298, (1R,3S)-3-(3-{[(5-methyl-1,3,4-oxadiazol-2-yl)acetyl]amino}-1H-pyrazol-5-yl)cyclopentyl tert-butylcarbamate] | 0.68 | 72 |
| CC[C@H](C)NC(=O)O[C@@H]1CC[C@H](c2cc(NC(=O)Cc3ccon3)n[nH]2)C1 [Example 323, (1R,3S)-3-{3-[(1,2-oxazol-3-ylacetyl)amino]-1H-pyrazol-5-yl}cyclopentyl (2S)-butan-2-ylcarbamate] | 1.07 | 74.1 |
| CC[C@@H](C)NC(=O)O[C@H]1CC[C@@H](c2cc(NC(=O)Cc3ccno3)n[nH]2)C1 [Example 29] | 0.16 | 19.7 |
| CCN(C)C(=O)O[C@@H]1CC[C@H](c2cc(NC(=O)Cc3ccc(F)cc3)n[nH]2)C1 [Example 238, (1R,3S)-3-(3-{[(4-fluorophenyl)acetyl]amino}-1H-pyrazol-5-yl)cyclopentyl ethyl(methyl)carbamate] | 1.13 | 14.7 |
| CC[C@H](C)NC(=O)O[C@@H]1CC[C@H](c2cc(NC(=O)Cc3ncc(C)o3)n[nH]2)C1 [Example 333, (1R,3S)-3-(3-{[(5-methyl-1,3-oxazol-2-yl)acetyl]amino}-1H-pyrazol-5-yl)cyclopentyl (2S)-butan-2-ylcarbamate] | 0.41 | 63.2 |
| CCCNC(=O)O[C@@H]1CC[C@H](c2cc(NC(=O)Cc3cc(C)no3)n[nH]2)C1 [Example 178, (1R,3S)-3-(3-{[(3-methyl-1,2-oxazol-5-yl)acetyl]amino}-1H-pyrazol-5-yl)cyclopentyl propylcarbamate] | 1.1 | 21.4 |
| Cc1cnc(CC(=O)Nc2cc([C@H]3CC[C@@H](OC(=O)NC4(C)CC4)C3)[nH]n2)o1 [Example 5, (1R,3S)-3-(3-{[(5-methyl-1,3-oxazol-2-yl)acetyl]amino}-1H-pyrazol-5-yl)cyclopentyl (1-methylcyclopropyl)carbamate] | 0.4 | 39.4 |
| COc1cnc(CC(=O)Nc2cc([C@H]3CC[C@@H](OC(=O)NC(C)(C)C)C3)[nH]n2)cn1 [Example 109] | 0.68 | 39.2 |
| Cc1coc(CC(=O)Nc2cc([C@H]3CC[C@@H](OC(=O)NC(C)C)C3)[nH]n2)n1 [Example 272, (1R,3S)-3-(3-{[(4-methyl-1,3-oxazol-2-yl)acetyl]amino}-1H-pyrazol-5-yl)cyclopentyl propan-2-ylcarbamate] | 2.63 | 40.9 |
| Cc1cccc(CC(=O)Nc2cc([C@H]3CC[C@@H](OC(=O)NC4(C)CC4)C3)[nH]n2)n1 [Example 426, (1R,3S)-3-(3-{[(6-methylpyridin-2-yl)acetyl]amino}-1H-pyrazol-5-yl)cyclopentyl (1-methylcyclopropyl)carbamate] | 0.53 | 17 |
